Assays:
Format in all cases: cell-based, human
CD34+ fibrocytes = assay: MHC II, CD80, CD86, PD-L1 expression in cultured fibrocytes (RT-qPCR, flow cytometry)
From the text: Fibrocyte and T cell isolation and cultivation. Peripheral blood mononuclear cells (PBMCs) were obtained from the venous circulation of clinic patients with GD, TAO or from healthy donors after obtaining informed consent. PBMCs were also obtained from Red Cross donor plasmapheresis filters. They were isolated by Ficoll-Histopaque (Sigma-Aldrich, St. Louis, MO) density gradient centrifugation. Fibrocytes were cultivated as described (Bucala, R, et al., (1994) Mol Med 1, 71-81, incorporated herein by reference in its entirety) except that culture substrata remained uncoated with fibronectin, as previously described (Douglas, R. S., et al. (2010) The Journal of clinical endocrinology and metabolism 95, 430-438). Isolated PBMCs (1×10^6-1×107) were inoculated in six-well plates covered with DMEM containing 10% FBS and incubated in 10-14 days. Adherent monolayers (<5% of the starting population) were washed with PBS and detached using accutase (Millipore) treatment, or mechanical scraping following accutase treatment. Culture purity was routinely confirmed by FACS analysis to be >90% fibrocytes by confirming the CD31^−CD45^+CD34^+CXCR4^+Col I^+TSFR^high phenotype.
Invariably, a small population of tightly adherent T cells were found in the fibrocyte cultures, consistent with the previous findings. Culture viability was routinely verified to be >90%. CD4^+ T cells were enriched using the CD4 isolation cocktail (Cat #0.130-096-533, Miltenyi Biotec, San Diego, CA) followed by negative selection using a magnetic column (Cat #0.130-042-401) according to manufacturer's protocol. Fibrocytes and isolated T cells were cultured and remained untreated or were incubated with human IgG isotype control (5 μg/ml) or teprotumumab (50 μg/mL) for 7 to 9 days. Single cell suspensions were stained with anti-human CD4, CD3, CD34, MHC-2, CD80, CD86, and PD-L1 (BD Biosciences) for 30 min, rinsed and fixed with CytoPerm/CytoFix (BD). They were then stained with anti-human INFγ and IL-17A for 20 min, rinsed, and subjected to the flow cytometry analysis. Gated CD34^+CXCR4^+ fibrocytes and CD4^+CD3^+ T cells were analyzed using quadrant settings based on negative isotype staining.
In vitro studies of CD34^+ fibrocytes and T cells PBMC and GD-OF monolayers were treated in vitro with human IgG isotype control (5 μg/ml), teprotumumab (50 μg/mL), H7 (5 μg/mL), linsitinib (1 μM), bTSH (5 mIU/mL), M22 (1 μg/mL), or IGF-1 (10 nM) for the intervals indicted in the figure legends in a 37° C., 5% CO2, humidified incubator until confluent. Brefeldin A (0.66 μl/ml), (Golgi Stop™, BD Biosciences), phorbol 12-myristate 13-acetate (PMA) (50 ng/ml) and ionomycin (1 μg/mL) were added for 5 h. Cells were rinsed with flow cytometry buffer (1×PBS, 0.5% BSA, 0.1% sodium azide) and stained with the relevant monoclonal antibodies.
(§1) Real-time PCR Confluent fibrocyte and GD-OF cultures were incubated with bTSH (5 mIU/mL), teprotumumab (50 μg/mL) or linsitinib (1 μM) for the time intervals indicated, washed with PBS and RNA was extracted with the Aurum Total RNA Mini Kit (cat. #732-6820, Bio-Rad, Hercules, CA). Cellular RNA (2 μg) was reverse transcribed using QuantiTect Reverse Transcription kit (cat. #205314, Qiagen (Germantown, MD) and real-time PCR was performed using an Applied Biosystems instrument with QuantiTect SYBR Green PCR kit (cat. no. 204143; Qiagen, Frederick, MD). Primer sequences were as follows.

GD-OF [1] = assay: HAS1 and HAS2 mRNA, real-time PCR; conditions: teprotumumab 50 μg/ml or linsitinib 1 μM, 7-9 d
Method: (§2) FIGS. 13A-13B are graphs showing the effect of teprotumumab on bTSH induced hyaluronan (HA) production in GD-OF (FIG. 13A) and fibrocytes (FIG. 13B). GD-OF were treated with or without teprotumumab (50 μg/ml) or human Isotype IgG (5 μg/ml) for 7-9 d and stimulated with bTSH (5 mIU/mL) for graded intervals indicated along the abscissa for 0 to 96h. Media were collected and subjected to HA ELISA. Values were normalized to respective cell layer protein levels and expressed as the mean±SD of three independent determinations. Experiments were repeated three times. FIGS. 13C-13F are graphs showing the divergent pattern of hyaluronan synthase (HAS) isoenzyme induction by bTSH in fibrocytes versus GD-OF and effects of teprotumumab (FIGS. 13C and 13D) and linsitinib (FIGS. 13E and 13F). Confluent monolayers of GD-OF and fibrocytes remained untreated or received teprotumumab (50 μg/ml) or linsitinib (1 μM) and human Isotype IgG for 7-9 d. Some cultures were treated with bTSH (5 mIU/mL) for 6h. Cellular RNA was harvested mRNA was reverse transcribed, and cDNA subjected to quantitative real-time PCR for HAS1 and HAS2. Values were normalized to their respective GAPDH levels and are expressed as the mean±SD of three independent determinations. Experiments were repeated three times. *, P<0.05; **, p<0.01; ***. P<0.001.
as §1

fibrocytes [2] = assay: HAS1 and HAS2 mRNA, real-time PCR; conditions: teprotumumab 50 μg/ml or linsitinib 1 μM, 7-9 d
Method: as §2, §1

fibrocytes [3] = assay: IL-23p19 and IL-12p35 mRNA expression, real-time PCR; conditions: teprotumumab 50 μg/ml or linsitinib 1 μM, 7-9 d
Method: (§3) FIGS. 10A-10F are graphs showing the divergent effect of teprotumumab on bTSH induced IL-23p19 and IL-12p35 expression on fibrocytes and GD-OF. Rinsed fibrocyte and GD-OF monolayers were incubated with or without 50 μg/ml teprotumumab (FIGS. 10A and 10B) or 1 μM linsitinib (FIGS. 10C and 10D) and human Isotype IgG for 7-9 d, and bTSH (5 mIU/mL) was added for 6 h. Harvested RNA was reverse transcribed and isolated cDNA was subjected to quantitative real-time PCR for IL-23p19 and IL-12p35 mRNA levels. Values were normalized to their respective GAPDH levels and are expressed as the mean±SD of three independent determinations. Experiments were repeated three times. FIGS. 10E and 10F are graphs showing the levels of IL-23 protein when rinsed fibrocyte and GD-OF monolayers were incubated with or without 50 μg/ml teprotumumab. **, p<0.01; ***. P<0.001.
as §1

GD-OF [4] = assay: as above; conditions: teprotumumab 50 μg/ml or linsitinib 1 μM, 7-9 d
Method: as §3
FIGS. 15A-15C are dose-response curves of teprotumumab effects on IL-6 expression/induction by bTSH (FIG. 15A); HAS2 expression/induction by bTSH (FIG. 15B); IL-12p35 expression/induction by bTSH (FIG. 15C). Following indicated treatments, cellular RNA was harvest from rinsed GD-OF cell layers, reversed transcribed and subjected to real-time PCR. Values were normalized to their respective GAPDH levels.
Graves' disease-orbital fibroblast (GD-OF) preparation and cultivtion GD-OF were isolated from orbital adipose/connective tissues removed during surgical orbital decompression surgery, as described ((Smith, T. J., et al., (2002) The Journal of clinical endocrinology and metabolism 87, 385-392). While the fraction of CD34^+ OF comprising GD-OF strains vary somewhat, the ratios of CD34^+/CD34^− OF are usually 50:50 in the early passages utilized in these studies (passages 2-11). Pure CD34^+ OF and CD34^− OF subsets were generated by staining for 30 m at 4° C. with fluorescein isothiocyanate-conjugated […] CD34 or its isotype control followed by cytometric cell sorting using a FACSAria III (BD Biosciences) instrument. Cells were sorted under sterile conditions into either CD34^+ OF, and CD34 OF subsets which were then re-cultured and treated without or with bTSH (5 mU/mL) or the other test compounds, as indicated, for 6 hrs, as indicated.
as §1

Compound: rhIGF-1: Recombinant Human IGF-1 (R & D systems)
- induction of MHC II, CD80, CD86, PD-L1 surface proteins by the agent itself (CD34+ fibrocytes; M22 1 μg/mL (peak at 6 d), IGF-1 10 nM, compared with bTSH): considerably less robust

Compound: C[C@]1(O)C[C@@H](c2nc(-c3ccc4ccc(-c5ccccc5)nc4c3)c3c(N)nccn32)C1 [linsitinib]
- HAS2 expression, single agent or in combination with bTSH (GD-OF [1]): nearly identical
- basal and bTSH-provoked expression of HAS1 (GD-OF [1]): nearly identical
- HAS2 expression, single agent or in combination with bTSH (fibrocytes [2]): nearly identical
- basal and bTSH-provoked expression of HAS1 (fibrocytes [2]): nearly identical
- IL-12p35 expression, basal and induction by bTSH (fibrocytes [3]): increasing
- IL-23p19 expression, basal and induction by bTSH (fibrocytes [3]): decreasing
- induction of MHC II, CD80, CD86, PD-L1 surface proteins (CD34+ fibrocytes; bTSH-treated fibrocytes): blocked
- induction of MHC II, CD80, CD86, PD-L1 mRNA by bTSH and M22 (CD34+ fibrocytes; teprotumumab 50 μg/mL, 1H7 5 μg/mL, linsitinib 1 μM): blocked
- IL-12p35 expression, basal and induction by bTSH (GD-OF [4]): increasing
- IL-23p19 expression, basal and induction by bTSH (GD-OF [4]): decreasing

Compound: COc1ccc(C2Nc3ccccc3C(=O)N2Cc2ccco2)cc1COc1c(C)cc(NC(C)=O)cc1C (stereo not drawn) [ML224]
- effect on MHC II, CD80, CD86, PD-L1 expression, teprotumumab compared with TSHR inhibitor ML224 (CD34+ fibrocytes; 9 d, single agents and in combination): effective

Source: US20250034264A1, “REGULATING T CELL IMMUNE RESPONSE THROUGH IGF-I RECEPTOR (IGF-1R)” (The Regents of the University of Michigan, priority 2021, published 2025)
